# Laboratory results from patent US8685970B2, “Quinolines and related analogs as sirtuin modulators” (GlaxoSmithKline, LLC, priority 2008, dated 2014).
# Target: T1, SIRT1 (Homo sapiens, UniProt Q96EB6)
# T1 sequence (Q96EB6 1-747): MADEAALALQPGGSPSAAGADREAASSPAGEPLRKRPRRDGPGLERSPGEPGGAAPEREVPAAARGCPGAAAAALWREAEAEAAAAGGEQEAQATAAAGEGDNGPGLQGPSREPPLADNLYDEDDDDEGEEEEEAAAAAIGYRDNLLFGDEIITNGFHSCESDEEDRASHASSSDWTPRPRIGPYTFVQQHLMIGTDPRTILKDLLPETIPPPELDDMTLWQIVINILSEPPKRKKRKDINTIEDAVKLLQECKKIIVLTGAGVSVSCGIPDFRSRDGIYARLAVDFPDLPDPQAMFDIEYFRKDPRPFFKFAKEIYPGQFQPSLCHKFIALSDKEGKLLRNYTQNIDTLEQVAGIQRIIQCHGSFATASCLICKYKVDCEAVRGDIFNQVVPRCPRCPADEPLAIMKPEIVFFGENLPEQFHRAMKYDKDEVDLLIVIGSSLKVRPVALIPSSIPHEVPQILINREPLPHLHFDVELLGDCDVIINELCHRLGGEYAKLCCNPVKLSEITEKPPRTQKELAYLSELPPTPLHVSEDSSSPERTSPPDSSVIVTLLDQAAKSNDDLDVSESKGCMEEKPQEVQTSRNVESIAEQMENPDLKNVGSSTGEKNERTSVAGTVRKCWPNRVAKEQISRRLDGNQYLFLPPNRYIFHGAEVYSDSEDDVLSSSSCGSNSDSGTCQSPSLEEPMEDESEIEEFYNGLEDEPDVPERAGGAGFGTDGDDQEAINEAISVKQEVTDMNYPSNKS
# Assay: Mass spectrometry based SIRT1 deacetylation assay (activation)
# Format: biochemical
# Conditions: 10 nM SIRT1, 0.5 μM peptide substrate, 120 μM βNAD+, 25 min at 25° C.
# In short: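 Recombinant N-His-tagged SIRT1 (E. coli BL21(DE3)), 10 nM, incubated 25 min at 25 °C with 0.5 μM biotin/5TMR-labelled acetyl-p53-derived 20-mer peptide and 120 μM βNAD+ in Tris-acetate pH 8 buffer with DTT and BSA. Formic acid stop; MS quantifies acetylated vs deacetylated peptide. EC1.5 = concentration giving 150% activation versus DMSO.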
Compound,% Fold Act. (percent maximum fold activation),EC1.5 (concentration of test compound that results in 150% activation of SIRT1)
O=C(Nc1ccc(CN2CCCC2)nc1)c1cccc2ccc(-c3cccc(C(F)(F)F)c3)nc12 [Compound 292],A (Fold activation >200%),A (EC1.5<1.0 uM)
Cn1ccc(C(=O)Nc2cccc3ccc(-c4cccnc4)nc23)n1 [Compound 293],A (Fold activation >200%),A (EC1.5<1.0 uM)
Cn1cnc(C(=O)Nc2cccc3ccc(-c4cccnc4)nc23)c1 [Compound 294],A (Fold activation >200%),B (EC1.5 1-25 uM)
Cc1csc(NC(=O)c2cccc3cnc(-c4cccnc4)nc23)n1 [Compound 295],–,C (EC1.5>25 uM)
O=C(Nc1ccncn1)c1cccc2cnc(-c3cccnc3)nc12 [Compound 296],–,C (EC1.5>25 uM)
O=C(Nc1cccnc1)c1cccc2cnc(-c3cccnc3)nc12 [Compound 297],–,C (EC1.5>25 uM)
O=C(Nc1ccccn1)c1cccc2cnc(-c3cccnc3)nc12 [Compound 298],–,C (EC1.5>25 uM)
O=C(Nc1nccs1)c1cccc2cnc(-c3cccc(N4CCOCC4)c3)nc12 [Compound 299],B (Fold Activation <200%),B (EC1.5 1-25 uM)
O=C(Nc1ncnc2ccc(-c3cccc(C(F)(F)F)c3)nc12)c1cncs1 [Compound 300],A (Fold activation >200%),B (EC1.5 1-25 uM)
O=C(Nc1ncnc2ccc(-c3cccc(OC(F)(F)F)c3)nc12)c1cscn1 [Compound 301],A (Fold activation >200%),A (EC1.5<1.0 uM)
O=C(Nc1ccc(CN2CCCC2)cn1)c1cccc2ccc(-c3cccc(C(F)F)c3)nc12 [Compound 302],A (Fold activation >200%),A (EC1.5<1.0 uM)
O=C(Nc1ccc(CN2CCOCC2)cc1)c1cccc2ccc(-c3cccc(C(F)F)c3)nc12 [Compound 303],A (Fold activation >200%),A (EC1.5<1.0 uM)
O=C(Nc1nccs1)c1cccc2ccc(-c3ccnc(C(F)F)c3)nc12 [Compound 304],A (Fold activation >200%),A (EC1.5<1.0 uM)
O=C(Nc1cccnc1)c1cccc2ccc(-c3ccnc(C(F)F)c3)nc12 [Compound 305],A (Fold activation >200%),A (EC1.5<1.0 uM)
O=C(Nc1cccc(CN2CCOCC2)n1)c1cccc2ccc(-c3ccnc(C(F)F)c3)nc12 [Compound 306],A (Fold activation >200%),A (EC1.5<1.0 uM)
Cc1cnc(NC(=O)c2cccc3ccc(-c4ccnc(C(F)F)c4)nc23)s1 [Compound 307],–,C (EC1.5>25 uM)

Compound,% Fold Act. (percent maximum fold activation),EC1.5 (concentration of test compound that results in 150% activation of SIRT1)
O=C(Nc1ccncn1)c1cccc2ccc(-c3ccnc(C(F)F)c3)nc12 [Compound 308],A (Fold activation >200%),A (EC1.5<1.0 uM)
O=C(Nc1ncnc2ccc(-c3cccc(OC(F)(F)F)c3)nc12)c1cncs1 [Compound 309],A (Fold activation >200%),B (EC1.5 1-25 uM)
O=C(Nc1ncnc2ccc(-c3cccc(C(F)(F)F)c3)nc12)c1ccccn1 [Compound 310],A (Fold activation >200%),A (EC1.5<1.0 uM)
O=C(Nc1ncnc2ccc(-c3cccc(C(F)(F)F)c3)nc12)c1cccnc1 [Compound 311],A (Fold activation >200%),B (EC1.5 1-25 uM)
O=C(Nc1ncnc2ccc(-c3cccc(C(F)(F)F)c3)nc12)c1ccc(CN2CCCC2)cc1 [Compound 312],A (Fold activation >200%),B (EC1.5 1-25 uM)
Cc1csc(NC(=O)c2cccc3cnc(-c4cccc(N5CCOCC5)c4)nc23)n1 [Compound 313],A (Fold activation >200%),A (EC1.5<1.0 uM)
O=C(Nc1cccnc1)c1cccc2cnc(-c3cccc(N4CCOCC4)c3)nc12 [Compound 314],B (Fold Activation <200%),A (EC1.5<1.0 uM)
O=C(Nc1ccccn1)c1cccc2cnc(-c3cccc(N4CCOCC4)c3)nc12 [Compound 315],A (Fold activation >200%),A (EC1.5<1.0 uM)
O=C(Nc1cccc(CN2CCCC2)c1)c1cccc2ccc(-c3cccc(C(F)F)c3)nc12 [Compound 316],A (Fold activation >200%),A (EC1.5<1.0 uM)
O=C(Nc1cccc2ccc(-c3cccnc3)nc12)c1cccc(OCCN2CCOCC2)c1 [Compound 317],A (Fold activation >200%),B (EC1.5 1-25 uM)
O=C(Nc1cccc2ccc(-c3cccc(C(F)(F)F)c3)nc12)c1cccc(OCCN2CCOCC2)c1 [Compound 318],–,C (EC1.5>25 uM)
O=C(Nc1cccc(N2CCOCC2)n1)c1cccc2ccc(-c3cccc(C(F)(F)F)c3)nc12 [Compound 319],A (Fold activation >200%),A (EC1.5<1.0 uM)
O=C(Nc1cccc(N2CCCC2)n1)c1cccc2ccc(-c3cccc(C(F)(F)F)c3)nc12 [Compound 320],A (Fold activation >200%),A (EC1.5<1.0 uM)
O=C(Nc1ccnc(N2CCOCC2)c1)c1cccc2ccc(-c3cccc(C(F)(F)F)c3)nc12 [Compound 321],A (Fold activation >200%),A (EC1.5<1.0 uM)
O=C(Nc1ccnc(N2CCCC2)c1)c1cccc2ccc(-c3cccc(C(F)(F)F)c3)nc12 [Compound 322],A (Fold activation >200%),A (EC1.5<1.0 uM)
